Measurements from patent US20050137255A1, “Crystalline escitalopram hydrobromide and methods for preparing the same” (H. Lundbeck A/S, priority 2002, published 2005).
“Also recorded” adds a separate entry of the source. Structures can show the parent of a compound that is named as a salt.

Key:
Type in all cases: physicochemical
[1] = Exposure of crystalline material to air (hygroscopicity); conditions: sample exposed to air
[2] = Thermogravimetric analysis (TGA) of Form I; conditions: heated 10°/min
Description: The sample (1-5 mg) was heated 10°/min. on a TA Instruments TGA 2950 (available from TA Instruments of New Castle, Del.). No weight loss (<0.1%) was observed up to 150° C. Decomposition began at approximately 240° C.

[3] = Dynamic vapor sorption (DVS) of Form I
[4] = Stability (stated property)

- hygroscopicity [1]: non-hygroscopic
- decomposition began [2]: approximately 240 °C
- weight loss ([2]; up to 150° C.): < 0.1%
- hygroscopicity ([3]; after water uptake at 80% relative humidity): very hygroscopic
- water absorbed ([3]; at 80% relative humidity, corresponds to 14%): about 3.6 mol-equivalent of water
- water absorbed ([3]; at 95% relative humidity): ~9 mol-equivalent of water
- water absorbed ([3]; first run, at 80% relative humidity): 14%
- water absorbed ([3]; first run, until the relative humidity exceeded 70%): no water was absorbed
- stability [4]: stable
Compound: CN(C)CCC[C@@]1(c2ccc(F)cc2)OCc2cc(C#N)ccc21 [Form I, (S)-1-[3-(dimethylamino)propyl]-1-(4-fluorophenyl)-1,3-dihydro-5-isobenzofuran carbonitrile hydrobromide]
- hygroscopicity ([3]; relative humidity less than (about) 70%, hydrobromide): not hygroscopic; also recorded: non-hygroscopic
